Data set [1] in a line: Stability of L-PT in 0.9% saline at 4° C. for 14 days. As to conditions: for Stability % (PT remaining in the liposomes): 0.9% saline, 4° C., DMPC:DMPG 7:3; for stability compared with Pt cyclopentenecarboxylato-racemic-DACH, in words: saline. It is filed as physicochemical. The method, then: The stability of the different liposome-PT (L-PT) preparations in 0.9% NaCl solution at 4° C., and 50% human (AB) serum in 0.9% NaCl solution at 37° C. was determined using the following formula: [formula]
The EE values used in the stability determinations were obtained by measuring PT in the supernatants by UV spectrophotometry (0.9% NaCl solution) or x-ray fluorescence (50% human AB serum). The stability in 0.9% NaCl solution was determined up to 14 days after the initial preparation. In addition, the L-PT preparations were observed microscopically on day 14 to check the morphology of the vesicles. The stability in 50% human AB serum was determined up to 18 hours after incubation.
Preparations were suspended in 0.9% saline and incubated at 4° C. for 14 days. The liposome compositions were observed by light microscopy and the amount of free PT in the saline determined. […] Free PT was determined and stability was calculated as the percentage PT remaining in the liposomes.

Data set [2] has as its system L1210 mouse leukemia. As to the kind of experiment: In vivo antitumor activity against L1210 mouse leukemia (L1210-BDF1 mouse model). Further details: species or system BDF1 mice. As to conditions: for Optimal dose: L1210 ip/ip, single dose. The protocol: BDF1 mice were purchased from Charles River (Wilmington, MA). Groups of 6-8 mice weighing 18-22 gm were inoculated ip with 1×10^6 L1210 leukemia cells on day 0. L1210 cells were kept in DBA2 mice were weekly passages between the different experiments. All L-PT preparations were injected ip in volumes of 0.1 to 0.3 ml 24 hours after tumor inoculation. Two different schedules of administration were used: a single injection on day 1 or an injection on days 1, 5 and 9 (multiple). […] Clinical behavior and survival times were monitored until all animals had died. Results were expressed as % T/C (median survival time of treated mice/median survival time of control mice ×100) and number of long-term survivors. Mice living more than 30 days and more than 60 days were considered to be long-term survivors for the single and multiple injection schedule respectively. All L-PT preparations tested for antitumor activity were prepared under sterile conditions on the same day of the experiment.
The antitumor activity against L-1210 murine leukemia of the different L-PT analogs was assessed in an L-1210-BDF, mouse model (tumor inoculation day 0, treatment day 1, ip) as described earlier herein.
These liposome-encapsulated compounds were tested to determine their optimal dose and effectiveness as inhibitors of in vivo tumor growth as described in Example 12.

The nature of data set [3]: Acute toxicity (LD10, LD50, LD90) in CD-1 Swiss mice. It is filed as in vivo. The method, then: Toxicology studies were carried out in 6-8 weeks old CD-1 Swiss mice weighing 22-25 gm and purchased from The University of Texas Science Park (Bastrop, TX). Free PT in suspension in hydroxypropylcellulose, DMPG, DMPG-PT, DMPC:DMPG 7:3 and DMPC:DMPG 7:3-PT were administered intraperitoneally (ip) in volumes ranging between 0.1 and 0.3 ml. DMPC:DMPG 7:3-PT was also administered intravenously (iv) in one single injection or in 3 daily injections. The clinical behavior and the survival times were monitored on a daily basis.

Data set [4] can be described thus: Nephrotoxicity: blood urea nitrogen (BUN) 96 hours after ip LD50 dose. The settings on record: for BUN at 96 hours: ip single injection at LD50 dose. It is filed as in vivo, CD1 Swiss mice. The protocol: All L-PT preparations tested for toxicity were prepared under sterile conditions on the same day of the experiments.
The subject of data set [5] is L1210 cells. Put plainly: In vitro growth inhibition of L1210 leukemic cells (96 hours, Coulter Counter). As to conditions: Exp. 1; 5760 min. The class given is cell-based, murine. The method, then:
Four ml of cell suspension were added to culture tubes and the appropriate concentration of free PT or L-PT was added (from 0.01 micro g/ml to 10 micro g/ml final concentration). After 96 hours, the cell concentration of control and experimental cultures were calculated with a Coulter Counter (Coulter Electronics, Hialeah, FLA) and the percent inhibition calculated. The following preparations were tested: free PT, DMPG, DMPC:DMPG 7:3, DMPG-PT and DMPC:DMPG 7:3-PT.

Data set [6] in a line: Encapsulation efficiency of platinum complexes in multilamellar liposomes (UV spectrophotometry / x-ray fluorescence). It is filed as physicochemical. The settings on record: for Encapsulation Efficiency: lipophilic cisplatin analogues incorporated in liposomes (Table 12); for % Encapsulation Efficiency: liposomes DMPC:DMPG 7:3, mean of at least three experiments. The protocol:
Multilamellar lipid vesicles (MLV) or liposomes containing incorporated platinum complexes (PT) of the above descriptions were prepared as previously described for other compounds (Lopez-Berestein et al (4)(1984) Clin. Exp. Metastasis V 2 pp 127-137 and Lopez-Berestein et al (1983) J Inf Dis V 147 pp 937-945). In brief, chloroform solutions of lipids (at the desired molar ratio) and PT were mixed at a lipid-PT ratio of 15:1 and the chloroform was evaporated in a rotary evaporator (Buchi, Brinkmann Instruments, Westbury, NY). The dried lipid film obtained, containing PT, was then dispersed with an aqueous solution (0.9% NaCl in water) by vigorous handshaking. The suspension was subsequently centrifuged at 30,000 ×g for 45 minutes, the supernatant was discarded, and the pellet containing PT was resuspended in 0.9% NaCl solution.
Elemental platinum (Pt) was determined in the liposome suspension and the pellet by x-ray fluorescence as previously reported (Seifert et al (1979) Proc. Amer. Ass'n. Cancer Res. V 20 p. 168) in the Department of Analytical Chemistry, The University of Texas Medical School at Houston, TX. The amount of platinum complex (PT) was determined in the supernatant by ultraviolet (UV) spectrophotometry using a wavelength of 224 nm. The EE was initially calculated with the two following formulas:
1. EE =Pt in pellet/total Pt in the initial liposome suspension
2. EE =Total Pt initially added - Pt in supernatant/total Pt initially added
The encapsulation efficiency for Pt-cyclopentenecarboxylato racemic-DACH was 66%. […] The encapsulation efficiency for Pt-neodecanoato-racemic-DACH, Pt-neodecanoatotrans-RR-DACH, Pt-n-decyliminodiacetato racemic DACH complexes are presented in Table I, shown below.
The compounds prepared in Examples 14-19 were tested for their efficiency of encapulation in liposomes by the methods described in Example 6. These liposome-encapsulated compounds were tested to determine their optimal dose and effectiveness as inhibitors of in vivo tumor growth as described in Example 12. The data in Table 12 reveal the resultant measurements.

Data set [7] in a line: Solubility in organic solvents and water. It is filed as physicochemical. As to conditions: for solubility in methanol and chloroform, in words: chloroform (and other organic solvents where stated).
The mark [8] stands for this setting: 25 mg/kg ip day 1, liposomes DMPC:DMPG 7:3 (Table 8).
The mark [9] stands for this setting: L1210 ip/ip single dose at the optimal dose, incorporated in liposomes (Table 12).
[10] abbreviates: incorporated in liposomes (Table 12).

For `CCCCCCCCCCN1CC(=O)[O][Pt]2([NH]C3CCCCC3[NH]2)[O]C(=O)C1` (mixture of isomers) [Pt-N-decyliminodiaceto-racemic-DACH mixture, cis-bis-n-decyliminodiaceto-DACH-platinum (II)], in data set [1], the “Stability % (PT remaining in the liposomes)” value is 100%. In addition, in data set [2] (setting [8]), the “% T/C” value was found to be 150%.

For `O=C([O][Pt]1([O]C(=O)C2=CCCC2)[NH]C2CCCCC2[NH]1)C1=CCCC1` (mixture of isomers) [Pt-cyclopentenecarboxylato racemic-DACH mixture, cis-bis-cyclopentenecarboxylato-1,2-DACH-platinum (II)], the “Stability % (PT remaining in the liposomes)” value in data set [1] is recorded as 89%. For the same compound, in data set [3] (ip single injection (Table 4, CD1 mice), 20160 min), the “LD50 Dose” value is on record as 91 mg/kg. In data set [3] (ip × 1), the LD10 is 61 mg/kg. This compound yielded an LD90 in data set [3] (ip × 1) of 125 mg/kg. Also, in data set [3] (ip × 1, 20160 min), the LD50 (in general, the dose expected to kill half of the subjects tested) is 91 mg/kg. Moreover, the “BUN at 96 hours” value in data set [4] (listed as Free PT) was 34.4 ± 9.6 mg %; in data set [4] (listed as PT in suspension in hydroxypropylcellulose), 34.4±9.6 mg %. In addition, the “BUN elevation, in words” value in data set [4] (ip, LD50 dose, 96 hours) was “no significant BUN elevations”. Also, in data set [5], the ID50 was 1.3 micro g/ml. The “% T/C” value was determined as 168% in data set [2] (6.25 mg/kg × 3 ip, days 1, 5 and 9); 173% in data set [2] (12.5 mg/kg ip day 1, Exp. 1); 136% in data set [2] (12.5 mg/kg ip day 1, Exp. 2); 179% in data set [2] (12.5 mg/kg ip day 1, Exp. 3); 284% in data set [2] (12.5 mg/kg × 3 ip, days 1, 5 and 9); 168% in data set [2] (25 mg/kg ip day 1, Exp. 3). The “% T/C” value in data set [2] (setting [8]) is given as 213%; in data set [2] (25 mg/kg × 3 ip, days 1, 5 and 9) it was 158%. The “% T/C, mean” value in data set [2] (12.5 mg/kg and 25 mg/kg, single ip dose, means of three experiments) was found to be 162%.

For `CCCCCCCCCCN1CC(=O)[O][Pt]2([NH][C@@H]3CCCC[C@H]3[NH]2)[O]C(=O)C1` [Pt-N-decyliminodiacetato-trans-RR-DACH, cis-bis-n-decyliminodiacetato-trans-RR-DACH-Pt (II)], the “Stability % (PT remaining in the liposomes)” value in data set [1] turned out to be 100%. Besides, in data set [2] (setting [8]), the “% T/C” value amounted to 162%.

For the compound `O=C([O][Pt]1([O]C(=O)C2=CCCC2)[NH][C@@H]2CCCC[C@H]2[NH]1)C1=CCCC1` [Pt-cyclopentenecarboxylato trans-RR-DACH, cis-bis-cyclopentenecarboxylato-1,2-trans-RR-DACH-Pt (II)-3H2 O], in data set [1], the “Stability % (PT remaining in the liposomes)” value was determined as 94% and the “stability compared with Pt cyclopentenecarboxylato-racemic-DACH, in words” value is “greater stability”. Moreover, the “% T/C” value in data set [2] (setting [8]) turned out to be 187%.

On to `O=C([O][Pt]1([O]C(=O)C2=CCCC2)[NH][C@H]2CCCC[C@@H]2[NH]1)C1=CCCC1` [Pt-cyclopentenecarboxylato trans-SS-DACH], for which the “% T/C” value in data set [2] (setting [8]) was 155%.

As for `CCCCCCCCCC(=O)[O][Pt]1([O]C(=O)CCCCCCCCC)[NH][C@@H]2CCCC[C@H]2[NH]1` [cis-bis-decanoato-trans-R,R-1,2-diaminocyclohexane-platinum II], the “% T/C” value in data set [2] (setting [9]) is 187%. In addition, the Optimal dose in data set [2] (setting [10]) came to 50 mg/kg.

For “Cis-bis-neodecanoato-trans-R,R-1,2-diaminocyclohexane-platinum”, the “Encapsulation Efficiency” value in data set [6] is 93%. Also, the “% T/C” value in data set [2] (setting [9]) is listed as 170%. The Optimal dose in data set [2] (setting [10]) stood at 25 mg/kg.

For the compound “cis-bis-neodecanoato-RR-DACH-Platinum (II) [Pt-neodecanoato-trans-RR-DACH]”, the “% Encapsulation Efficiency” value in data set [6] is 99%. Further, the “Stability % (PT remaining in the liposomes)” value in data set [1] worked out at 99%. Moreover, the “% T/C” value in data set [2] (setting [8]) is reported as 175%.

As to “cis-bis-neodecanoato-bis-cyclohexylamine-platinum (II)”, in data set [6], the “Encapsulation Efficiency” value came out at 89%. Also, in data set [2] (setting [9]), the “% T/C” value was 125%. In data set [2] (setting [10]), this compound yielded an Optimal dose of 100 mg/kg. Further, in data set [7], the “solubility in methanol and chloroform, in words” value is given as “highly soluble”; the “solubility in water, in words” value is “insoluble”.

“cis-bis-neodecanoato-bis-diamine-platinum (II)”: the “Encapsulation Efficiency” value in data set [6] was determined as 95%. For the same compound, the “% T/C” value in data set [2] (setting [9]) was determined as 200%. In data set [2] (setting [10]), this compound yielded an Optimal dose of 50 mg/kg. Also, in data set [7], the “solubility in methanol and chloroform, in words” value is “highly soluble”; the “solubility in water, in words” value is listed as “insoluble”.

On to “cis-bis-neodecanoato-bis-isopropylamine-platinum (II)”, for which, in data set [6], the “Encapsulation Efficiency” value was found to be 87%. Further, the “% T/C” value in data set [2] (setting [9]) was 150%. In data set [2] (setting [10]), this compound had an Optimal dose of 100 mg/kg. In data set [7], the “solubility in methanol and chloroform, in words” value is recorded as “highly soluble”; the “solubility in water, in words” value is given as “insoluble”.

With “cis-bis-neodecanoato-ethylenediamine-platinum(II)”, the “% T/C” value in data set [2] (setting [9]) is 144%. In data set [2] (setting [10]), the Optimal dose is recorded as 75 mg/kg.

In the case of “cis-bis-neodecanoatoDACH-platinum II [Pt-neodecanoato-racemic DACH-mixture]”, the “% Encapsulation Efficiency” value in data set [6] came out at 99%. Moreover, in data set [1], the “Stability % (PT remaining in the liposomes)” value amounted to 100% and the “stability compared with Pt cyclopentenecarboxylato-racemic-DACH, in words” value was “greater stability”. Also, the “% T/C” value in data set [2] (50 mg/kg ip day 1, liposomes DMPC:DMPG 7:3 (Table 8)) was found to be 187%. For the same compound, in data set [7], the “solubility in methanol and chloroform, in words” value is on record as “highly soluble”; the “solubility in water, in words” value was “insoluble”.

Values taken from patent publication US5041581A (priority 1986, dated 1991).
